pIC50: −log10 of the molar value. Active and inactive are the calls of the source.
How the values were obtained:
[1] = target: Apoptosis regulator Bcl-2 (Homo sapiens, UniProt P10415); experiment: Binding affinity to full length human Bcl-2 expressed in Escherichia coli BL21 (DE3) at up to 100 uM preincubated for 30 mins followed by 5-FAM-QEDIIIINIARHLAQVGDSMD-RSIPPG tracer addition and measured after 20 mins by fluorescence polarization assay; conditions: dose microM <=100, time 50.0 min
[2] = target: Induced myeloid leukemia cell differentiation protein Mcl-1 (Homo sapiens, UniProt Q07820); experiment: Binding affinity to full length human MCL1 expressed in Escherichia coli BL21 (DE3) at up to 100 uM preincubated for 30 mins followed by 5-FAM-QEDIIIINIARHLAQVGDSMD-RSIPPG tracer addition and measured after 20 mins by fluorescence polarization assay; conditions: dose microM <=100, time 50.0 min
[3] = system: HL-60; experiment: cells; conditions: Homo sapiens, HL-60, 48 h
Description: Cytotoxicity against human HL-60 cells assessed as inhibition of cell growth incubated for 48 hrs by CCK8 assay

[4] = system: RS4-11; experiment: cells; conditions: Homo sapiens, RS4-11, 48 h
Description: Cytotoxicity against human RS4-11 cells assessed as inhibition of cell growth incubated for 48 hrs by CCK8 assay

[5] = target: Bcl-2-like protein 1 (Homo sapiens, UniProt Q07817); experiment: Binding affinity to full length human Bcl-xl expressed in Escherichia coli BL21 (DE3) at up to 100 uM preincubated for 30 mins followed by 5-FAM-QEDIIIINIARHLAQVGDSMD-RSIPPG tracer addition and measured after 20 mins by fluorescence polarization assay; conditions: dose microM <=100, time 50.0 min
[6] = system: HeLa; experiment: cells; conditions: Homo sapiens, 48 h
Description: Cytotoxicity against human HeLa cells assessed as inhibition of cell growth incubated for 48 hrs by CCK8 assay

[7] = system: HEK-293T; experiment: Cytotoxicity against HEK293T cells assessed as reduction in cell viability incubated for 48 hrs by CCK8 assay; conditions: Homo sapiens

Bcl-2-like protein 1, sequence (Q07817 whole entry): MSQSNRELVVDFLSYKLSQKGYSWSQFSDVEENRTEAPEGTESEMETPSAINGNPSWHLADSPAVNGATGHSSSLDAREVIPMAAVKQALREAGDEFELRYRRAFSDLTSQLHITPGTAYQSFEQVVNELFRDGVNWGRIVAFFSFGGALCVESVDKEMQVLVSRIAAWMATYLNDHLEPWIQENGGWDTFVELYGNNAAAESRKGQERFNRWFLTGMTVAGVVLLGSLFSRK
Apoptosis regulator Bcl-2, sequence (P10415 whole entry): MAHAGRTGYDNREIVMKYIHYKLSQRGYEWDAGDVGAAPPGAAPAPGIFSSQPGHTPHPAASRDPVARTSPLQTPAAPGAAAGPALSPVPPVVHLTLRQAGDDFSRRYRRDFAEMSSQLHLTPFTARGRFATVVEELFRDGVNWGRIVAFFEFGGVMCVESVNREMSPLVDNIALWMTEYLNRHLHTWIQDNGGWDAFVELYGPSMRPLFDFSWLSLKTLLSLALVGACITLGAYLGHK
Induced myeloid leukemia cell differentiation protein Mcl-1, sequence (Q07820 whole entry): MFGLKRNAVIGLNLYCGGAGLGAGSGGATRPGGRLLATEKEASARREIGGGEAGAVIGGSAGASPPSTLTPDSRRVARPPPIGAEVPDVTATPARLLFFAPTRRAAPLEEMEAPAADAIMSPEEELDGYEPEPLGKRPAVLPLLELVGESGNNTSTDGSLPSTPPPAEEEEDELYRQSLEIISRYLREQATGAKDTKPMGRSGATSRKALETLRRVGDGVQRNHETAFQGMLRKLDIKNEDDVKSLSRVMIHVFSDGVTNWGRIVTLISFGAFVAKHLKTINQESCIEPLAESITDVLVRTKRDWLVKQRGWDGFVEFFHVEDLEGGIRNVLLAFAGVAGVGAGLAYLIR

| Activity [1] | Activity [2] | pIC50 [3] | pIC50 [4] | Activity [5] | pIC50 [6] | SMILES | pIC50 [7] |
| --- | --- | --- | --- | --- | --- | --- | --- |
| inactive | inactive | 5.05 | 5.39 | inactive | 4.98 | O=C(NCCNS(=O)(=O)c1ccc(-c2ccccc2O[C@H]2CC[C@H](O)CC2)s1)Nc1ccc([N+](=O)[O-])cc1 | 5.05 |
| inactive | inactive | 5.14 | 5.20 | inactive | 5.00 | O=[N+]([O-])c1ccc(Oc2ccccc2-c2ccc(S(=O)(=O)NCCNC(=S)Nc3cc(C(F)(F)F)cc(C(F)(F)F)c3)s2)cc1 | 5.22 |
| inactive | inactive | 5.44 | 5.12 | inactive | < 4.70 | COc1cccc(NC(=O)NCCNS(=O)(=O)c2sccc2-c2ccc(C)cc2Oc2ccc(O)c(O)c2)c1 | < 4.70 |
| inactive | inactive | < 4.70 | 5.24 | inactive | < 4.70 | Cc1cc(C)cc(NC(=O)NCCNS(=O)(=O)c2ccc(-c3ccccc3OCc3cccc(O)c3)s2)c1 | < 4.70 |
| inactive | inactive | 5.66 | < 4.30 | inactive | < 4.30 | Cc1cc(C)cc(NC(=O)NCCNS(=O)(=O)c2ccc(-c3ccccc3OCc3ccccc3)s2)c1 | < 4.70 |
| inactive | inactive | 5.40 | 5.52 | inactive | 4.76 | O=C(NCCNS(=O)(=O)c1ccc(-c2ccccc2OCc2cccc(O)c2)s1)Nc1cc(C(F)(F)F)cc(C(F)(F)F)c1 | < 4.70 |
| inactive | inactive | < 4.70 | 4.91 | inactive | < 4.70 | O=C(NCCNS(=O)(=O)c1ccc(-c2ccccc2O[C@H]2CC[C@@H](O)CC2)s1)Nc1ccc([N+](=O)[O-])cc1 | 5.07 |
| inactive | inactive | 6.47 | 5.52 | inactive | < 4.70 | O=C(NCCNS(=O)(=O)c1ccc(-c2ccccc2Oc2ccc([N+](=O)[O-])c([N+](=O)[O-])c2)s1)Nc1ccc([N+](=O)[O-])cc1 | 4.78 |
| inactive | inactive | 4.94 | < 4.30 | inactive | 4.87 | O=C(NCCNS(=O)(=O)c1ccc(-c2ccccc2OCc2ccccc2)s1)Nc1cc(C(F)(F)F)cc(C(F)(F)F)c1 | < 4.70 |
| inactive | inactive | 5.17 | 5.89 | inactive | < 4.70 | COc1cccc(NC(=O)NCCNS(=O)(=O)c2ccc(-c3ccccc3Oc3ccc([N+](=O)[O-])c([N+](=O)[O-])c3)s2)c1 | 4.75 |
| inactive | inactive | < 4.30 | < 4.30 | inactive | 5.34 | O=[N+]([O-])c1ccc(Oc2ccccc2-c2ccc(S(=O)(=O)NCCNC(=S)Nc3cccc(Cl)c3)s2)cc1 | 5.30 |
| inactive | inactive | < 4.70 | 4.85 | inactive | < 4.70 | O=C(NCCNS(=O)(=O)c1ccc(-c2ccccc2O[C@H]2CC[C@H](O)CC2)s1)Nc1cc(Cl)cc(Cl)c1 | < 4.30 |
| inactive | inactive | 5.06 | 5.29 | inactive | < 4.70 | CC(C)c1ccc(Oc2ccc(O)c(O)c2)c(-c2ccsc2S(=O)(=O)NCCNC(=S)Nc2ccc([N+](=O)[O-])cc2)c1 | 4.79 |
| inactive | inactive | < 4.30 | 4.92 | inactive | 4.83 | O=S(=O)(NCCNC(=S)Nc1cc(C(F)(F)F)cc(C(F)(F)F)c1)c1ccc(-c2ccccc2OCc2cccc(O)c2)s1 | < 4.70 |
| inactive | inactive | 5.51 | 5.03 | inactive | 4.85 | O=C(NCCNS(=O)(=O)c1ccc(-c2ccccc2O[C@H]2CC[C@@H](O)CC2)s1)Nc1cc(C(F)(F)F)cc(C(F)(F)F)c1 | 4.85 |
| inactive | inactive | 5.55 | < 4.30 | inactive | < 4.30 | O=C(NCCNS(=O)(=O)c1ccc(-c2ccccc2OCc2cccc(O)c2)s1)Nc1cc(Cl)cc(Cl)c1 | < 4.70 |
| inactive | inactive | 4.94 | 5.82 | inactive | 5.27 | O=[N+]([O-])c1ccc(NC(=S)NCCNS(=O)(=O)c2ccc(-c3ccccc3O[C@H]3CC[C@H](O)CC3)s2)cc1 | 4.98 |
| inactive | inactive | 5.13 | 4.93 | inactive | 4.94 | COc1ccc(Oc2ccc(C(C)C)cc2-c2ccsc2S(=O)(=O)NCCNC(=O)Nc2cc(C(F)(F)F)cc(C(F)(F)F)c2)cc1OC | 4.92 |
| inactive | inactive | 4.94 | 5.01 | inactive | 4.95 | O=[N+]([O-])c1cccc(NC(=S)NCCNS(=O)(=O)c2ccc(-c3ccccc3OCc3cccc(O)c3)s2)c1 | 4.86 |
| inactive | inactive | < 4.70 | 5.03 | inactive | < 4.70 | COc1ccc(NC(=O)NCCNS(=O)(=O)c2ccc(-c3ccccc3OCc3cccc(O)c3)s2)cc1 | < 4.70 |
| inactive | inactive | 5.72 | 5.62 | inactive | < 4.30 | O=C(NCCNS(=O)(=O)c1ccc(-c2ccccc2Oc2ccc([N+](=O)[O-])c([N+](=O)[O-])c2)s1)Nc1cc(C(F)(F)F)cc(C(F)(F)F)c1 | < 4.30 |
| inactive | inactive | < 4.30 | 5.03 | inactive | < 4.70 | O=[N+]([O-])c1ccc(NC(=S)NCCNS(=O)(=O)c2ccc(-c3ccccc3O[C@H]3CC[C@@H](O)CC3)s2)cc1 | 4.70 |
| inactive | inactive | 5.21 | 5.09 | inactive | < 4.70 | COc1ccc(NC(=O)NCCNS(=O)(=O)c2sccc2-c2ccc(C)cc2Oc2ccc(O)c(O)c2)cc1 | < 4.70 |
| inactive | inactive | 5.68 | < 4.30 | inactive | 5.33 | O=S(=O)(NCCNC(=S)Nc1cc(C(F)(F)F)cc(C(F)(F)F)c1)c1ccc(-c2ccccc2OCc2ccccc2)s1 | 5.07 |
| inactive | inactive | < 4.30 | < 4.30 | inactive | 5.08 | O=S(=O)(NCCNC(=S)Nc1cccc(Cl)c1)c1ccc(-c2ccccc2OCc2ccccc2)s1 | 4.99 |
| inactive | inactive | 5.64 | 5.68 | inactive | < 4.70 | O=C(NCCNS(=O)(=O)c1ccc(-c2ccccc2Oc2ccc([N+](=O)[O-])c([N+](=O)[O-])c2)s1)Nc1cc(Cl)cc(Cl)c1 | < 4.70 |
| inactive | inactive | 4.95 | 5.24 | inactive | 4.92 | COc1ccc(Oc2ccc(C(C)C)cc2-c2ccsc2S(=O)(=O)NCCNC(=S)Nc2ccc([N+](=O)[O-])cc2)cc1OC | 4.94 |
| inactive | inactive | 5.19 | 5.05 | inactive | 4.94 | COc1ccc(Oc2ccc(C(C)C)cc2-c2ccsc2S(=O)(=O)NCCNC(=O)Nc2cc(Cl)cc(Cl)c2)cc1OC | 4.92 |
| inactive | inactive | 5.39 | 5.08 | inactive | < 4.70 | COc1ccc(NC(=S)NCCNS(=O)(=O)c2sccc2-c2ccc(C)cc2Oc2ccc(O)c(O)c2)cc1 | < 4.70 |
